Here are results for 1 compound from article PMC7570852, “Ruthenium(II)/(III) DMSO-Based Complexes of 2-Aminophenyl Benzimidazole with In Vitro and In Vivo Anticancer Activity” (Molecules, 2020).

The structures appear in SMILES notation.

For data set [1], the system named is human colorectal cancer (Caco2) cells. Nature of the data set: MTT cell viability assay, Caco2. Type of data set: cell-based. The procedure:
The cytotoxic effect of the Hapbim ligand and its complexes (1) and (2) on human breast cancer (MCF7), human colorectal cancer (Caco2), and human normal liver (THLE-2) cell lines was evaluated by the MTT assay. The cells were cultured in a 96-well plate (1 × 10^4 cells/well, 100 μL/well) containing DMEM medium provided with 10% fetal bovine serum, and 1% penicillin/streptomycin. Then, the cells were incubated at 37 °C for 24 h in a CO2 incubator under 5% CO2, 95% air until reaching a confluence of 70–80%. A 20 μL volume of each compound at different concentrations (from 5 to 400 μM for the cancer cell and from 600 to 1000 μM for the normal cells) was added and the cells were re-incubated for a further 24 h. After the incubation period, the cells were incubated again with 5 mg/mL of MTT for 4 h and then the medium was replaced with 100 μL DMSO and vortexed for 20 min. Finally, the absorbance was recorded at 570 nm using the microplate reader. […] To calculate the cell inhibition percentage, the following equation was used:% Cell inhibition = 100 − % cell viability ((At − Ab)/(Ac − Ab)) × 100%)(4) where At is the absorbance value of tested compound; Ab is the absorbance value of blank; Ac is the absorbance value of the control.
In general terms: Tetrazolium dyes change colour on reduction, which living cells bring about.

The test system of data set [2] is MCF7 cells. Kind of data set: DNA fragmentation (agarose gel), MCF7. Type of data set: cell-based, human. The note with it: MCF7, 117.6 µg/mL, 4 h. The procedure: (§1) MCF7 and Caco2 cells were collected and genomic DNA was extracted using a Gene JET genomic DNA extraction kit following the manufacturer’s protocol (Thermo Scientific, #K0721). The extracted DNA samples were run on a 1.5% agarose gel at 50 V for 2 h and the fragment pattern was visualized by ethidium bromide staining under a UV transilluminator.

A further data set concerns Caco2 cells. Kind of data set: DNA fragmentation (agarose gel), Caco2. It counts as cell-based, human. The note with it: Caco2, 117.6 µg/mL, 4 h. As for the experimental part:
as §1

The test system of data set [3] is MCF7 cells. Kind of data set: Cell-cycle analysis by flow cytometry (PI), MCF7. It counts as cell-based, human. The note with it: MCF7, 117.6 μg/mL, 24 h. The procedure: The Ru(III) complex (2) (117.6 μg/mL) was added to MCF7 and Caco2 cells at a confluence of 70–80% and incubated for 24 h (in a CO2 incubator). The cells were then digested with warm trypsin-EDTA + warm PBS-EDTA (0.25%) (500 + 500 μL) with incubation for 10 min at 37 °C. The mixture was centrifuged (450 rpm) for 5 min, then the supernatant was removed. The mixture was washed twice in warm PBS and the cell pellet was re-suspended in 500 µl warm PBS, centrifuged and the supernatant decanted. A volume of 150 μL PBS + 350 μL ice-cold 70% ethanol was added and incubated at 4 °C for 1 h to fix the cells. To remove ethanol, the mixture was centrifuged at 350 rpm for 10 min and then the supernatant was removed. The mixture was washed twice in warm PBS and the cells were re-suspended in 500 μL of warm PBS, centrifuged, and the supernatant was removed. The cells were resuspended in 100 μL PBS and stored at 4 °C for up to four days. In darkness, the cells were stained with 100 µL of propidium iodide (PI) solution + 50 µL RNase A solution (100 µg/mL) and incubated in darkness for 30–60 min. The stained cells were read in an Attune flow cytometer (Applied Bio-system, Foster City, CA, USA).

Data set [4] relates to Ehrlich ascites carcinoma (EAC) cells. Kind of data set: EAC cytotoxicity assay in vitro (trypan blue exclusion). Type of data set: cell-based, mouse. The note with it: 2 h at 37 °C. The procedure: The cytotoxicity determination of compound (2) against EAC cells was calculated by the trypan blue exclusion method. The EAC cells were aspirated from the mouse’s peritoneal cavity by a sterile syringe and immediately transferred into a sterile falcon tube. Then, the cells were washed with sterile PBS to remove any serum or blood traces and centrifuged for 3 min, after which the supernatant was removed. After washing 2–3 times with PBS, the cell pellet was aspirated into a sterile falcon tube and every 1 mL of cell pellet was resuspended in 9 mL of sterile PBS until a concentration of […] in 0.1 mL was achieved, as determined with a hemocytometer; where 0.1 mL of cell suspension was added to 0.880 mL PBS then 20 μL of trypan blue was added. The cells’ viability was checked using a hemocytometer and found to be greater than 98%. […] Cells were visualized and counted under the microscope. For each sample at least 500 cells were counted, and the percent of dead to live cells was calculated. […] The percentage of cell viability was calculated using Equations (5) and (6):(5) % Cytotoxicity=Tdead−Cdead/Ttotal×100% % Viability = 100 − % Cytotoxicity(6) where Tdead is the number of dead cells in the treated tube, Cdead is the number of dead cells in the control tube, and Ttotal is the total number of cells (dead + live) in the treated tube.

Data set [5] can be described thus: Median lethal dose (LD50) determination. It counts as in vivo. The note with it: mice, intraperitoneal, mortality after 24 h. The procedure:
The LD50 was estimated by the method of Enegide. Briefly, different concentrations of compound (2) was prepared by dissolving a certain weight in 2% DMSO and completed with sterile saline then vortexed and left for 5 min until the solution was clear. Three hundred µL of each concentration (10, 20, 40, 60, 80, 100, 120, and 140 mg/kg) was injected intraperitoneally to eight groups of mice (each one containing four mice), then mortality was recorded after 24 h.

By IC50 is commonly meant the point on the concentration scale where inhibition reaches its midpoint. Read a low IC50 as greater potency. Broadly, the LD50 is the dose at which mortality reaches 50%. Consider `CS(C)=O.Nc1ccccc1-c1nc2ccccc2[nH]1.O.[Cl][Ru]([Cl])[Cl]` [(2), [Ru(III)Cl3(DMSO)(Hapbim)]·H2O], for which, in data set [1] (MTT, 24 h), the IC50 is 250 ± 10 µM and the “IC50 Caco2” value is 129 ± 8 µg/mL. In addition, the “Therapeutic index: IC50 of THLE-2 cell/IC50 of Caco2” value in data set [1] (in vitro) is given as 9.95. Also, in the data set with MCF7 cells [2], the DNA fragmentation entry is on record as “distinct DNA laddering”. Besides, in the data set with Caco2 cells, the DNA fragmentation entry was “distinct DNA laddering”. Further, in the data set with MCF7 cells [3], the “cells in G0/G1 phase” value is on record as 24%, the “cells in G2/M phase” value is given as 55% and the “cells in S phase” value is given as 21%. Further, the “IC50 against EAC cells” value in data set [4] is 70 ± 1 µg/mL. The compound further displayed an LD50 in data set [5] of 60 mg/kg.
